In PubChem BioAssay AID504388 (Southern Research Specialized Biocontainment Screening …, 2011):
The source made the active and inactive calls. How the calls were made is not given here.

test system: host cell cytotoxicity, % cell control, HIV fusion counter-screen; assay: host cell toxicity in fusion assay cells, dose response, cytotoxicity control for CCR5-tropic HIV-1 fusion inhibitors (AID 504388)

| Structure (SMILES) | CC50 |
| --- | --- |
| O=C(O)CCCN1C(=O)/C(=C/c2ccc(-c3ccc(Cl)c(Cl)c3)o2)SC1=S | 18.3 µM |
| O=C(O)c1ccc(C[n+]2c(-c3ccc([N+](=O)[O-])cc3)csc2Nc2ccccc2)cc1 | > 100 µM (inactive) |
| O=C(O)CCCN1C(=O)/C(=C\c2ccc(-c3ccc(Br)cc3)o2)SC1=S | 7.36 µM |
| CCc1ccc(-c2ccc(/C=C3\SC(=S)N(CCCC(=O)O)C3=O)o2)cc1 | > 100 µM (inactive) |
| COc1ccccc1Cn1c(O)cc2nn(-c3nc4ccccc4s3)c(=O)c-2c1C | 36.6 µM |
| CS(=O)(=O)C1=NSC2=NC(=O)/C(=C\c3cccn3-c3ccc(F)cc3)C(=N)N21 | 36.3 µM |
| COc1ccc(-n2cccc2/C=C2/C(=N)N3C(=NC2=O)SN=C3S(C)(=O)=O)cc1Cl | 96 µM |
| CS(=O)(=O)C1=NSC2=NC(=O)/C(=C\c3cccn3-c3ccc(Cl)c(Cl)c3)C(=N)N21 | 39.4 µM |
| Cc1c2c(=O)n(-c3nc4ccccc4s3)nc-2cc(O)n1CCC(C)C | 36.5 µM |
| Cc1c2c(=O)n(-c3nc4ccccc4s3)nc-2cc(O)n1C1CC1 | 6 µM |
| O=C(O)CCCN1C(=O)/C(=C\c2ccc(-c3ccc(F)cc3)o2)SC1=S | 88.2 µM |
| CS(=O)(=O)C1=NSC2=NC(=O)/C(=C\c3cccn3-c3cccc(C(F)(F)F)c3)C(=N)N21 | 53.9 µM |
| CS(=O)(=O)C1=NSC2=NC(=O)/C(=C\c3cccn3-c3ccc(Cl)cc3)C(=N)N21 | 39.7 µM |
| CS(=O)(=O)C1=NSC2=NC(=O)/C(=C\c3cccn3-c3cccc(Cl)c3)C(=N)N21 | 36.5 µM |
| CCOc1ccc(-n2cccc2/C=C2/C(=N)N3C(=NC2=O)SN=C3S(C)(=O)=O)cc1 | 40.2 µM |
| CCOC(=O)C1=C(C)N=c2s/c(=C\c3ccc(OCC(=O)O)cc3)c(=O)n2C1c1ccc(OC)c(OCC)c1 (centres undefined) | 71.9 µM |
| O=C(O)CCC(C(=O)O)N1C(=O)/C(=C\c2ccco2)SC1=S (centres undefined) | > 100 µM (inactive) |
| Cc1c2c(=O)n(-c3nc4ccccc4s3)nc-2cc(O)n1CCc1cccs1 | > 100 µM (inactive) |
| Cc1c2c(=O)n(-c3nc4ccccc4s3)nc-2cc(O)n1Cc1ccccc1Cl | 23.5 µM |
| O=C(O)c1ccc(C2Nc3ccc(S(=O)(=O)Nc4cc(Cl)ccc4Cl)cc3C3C=CCC32)cc1 (centres undefined) | 85.6 µM |
| COc1cccc(-n2cccc2/C=C2/C(=N)N3C(=NC2=O)SN=C3S(C)(=O)=O)c1 | > 100 µM (inactive) |
| CCc1ccc(-n2cccc2/C=C2/C(=N)N3C(=NC2=O)SN=C3S(C)(=O)=O)cc1 | 30.7 µM |
| COc1ccccc1NS(=O)(=O)c1ccc2c(c1)C1C=CCC1C(c1ccc(C(=O)O)cc1)N2 (centres undefined) | 70.9 µM |
| CCOC(=O)C1=C(C)N=c2sc(=Cc3ccc(OCC(=O)O)cc3)c(=O)n2C1c1ccccc1 (centres undefined) | 62.2 µM |
| CC1=C(C(=O)OC(C)C)C(c2ccc(Cl)cc2)n2c(s/c(=C\c3ccc(OCC(=O)O)cc3)c2=O)=N1 (centres undefined) | > 100 µM (inactive) |

| Structure (SMILES) | CC50 |
| --- | --- |
| O=C(O)CCCN1C(=O)/C(=C\c2ccc(-c3ccc(Cl)cc3)o2)SC1=S | 37.5 µM |
| Cc1ccc(-n2cccc2/C=C2/C(=N)N3C(=NC2=O)SN=C3S(C)(=O)=O)cc1 | 39.5 µM |
| CCOC(=O)C1=C(c2ccccc2)N=c2s/c(=C\c3ccc(OCC(=O)O)cc3)c(=O)n2C1c1cccc(OC)c1 (centres undefined) | 51.5 µM |
| COc1cccc(C2C(C(=O)Nc3ccccc3)=C(C)N=c3sc(=Cc4ccc(OCC(=O)O)cc4)c(=O)n32)c1 (centres undefined) | > 100 µM (inactive) |
| O=C(O)CCCN1C(=O)/C(=C/c2ccc(-c3cccc(C(F)(F)F)c3)o2)SC1=S | 92.8 µM |
| Cc1c2c(=O)n(-c3nc4ccccc4s3)nc-2cc(O)n1Cc1ccc(F)cc1 | 38.5 µM |
| CS(=O)(=O)C1=NSC2=NC(=O)/C(=C\c3cccn3-c3ccc(Br)cc3)C(=N)N21 | 36.9 µM |
| CCOC(=O)C1=C(C)N=c2sc(=Cc3ccc(OCC(=O)O)cc3)c(=O)n2C1c1ccc(F)cc1 (centres undefined) | 63 µM |
| Cc1c2c(=O)n(-c3nc4ccccc4s3)nc-2cc(O)n1CCc1ccc(O)cc1 | 27.2 µM |
| CS(=O)(=O)C1=NSC2=NC(=O)/C(=C\c3cccn3-c3cccc(F)c3)C(=N)N21 | 48.5 µM |
| CS(=O)(=O)C1=NSC2=NC(=O)/C(=C\c3cccn3-c3cc(Cl)cc(Cl)c3)C(=N)N21 | 51.9 µM |
| COc1ccc(-c2ccc(/C=C3\SC(=S)N(CCCC(=O)O)C3=O)o2)cc1 | 78.6 µM |
| O=C(O)c1ccc([C@@H]2Nc3ccc(S(=O)(=O)Nc4cccc5ccccc45)cc3[C@@H]3C=CC[C@@H]32)cc1 | 68.9 µM |
| O=C(O)c1ccc(C[n+]2c(-c3ccccc3)csc2Nc2ccccc2)cc1 | 75.2 µM |
| CCOC(=O)C1=C(C)N=c2s/c(=C\c3ccc(OCC(=O)O)cc3)c(=O)n2C1c1ccc(Cl)cc1 (centres undefined) | 38.3 µM |
| Cc1c2c(=O)n(-c3nc4ccccc4s3)nc-2cc(O)n1Cc1cccnc1 | 7.3 µM |
| COc1ccc(Cn2c(O)cc3nn(-c4nc5ccccc5s4)c(=O)c-3c2C)cc1 | 39.4 µM |
| O=C(O)CCCN1C(=O)/C(=C\c2ccc(-c3cccc(Cl)c3)o2)SC1=S | 51.1 µM |
| Cc1c2c(=O)n(-c3nc4ccccc4s3)nc-2cc(O)n1Cc1cccs1 | 42.5 µM |
| Cc1ccc(-n2cccc2/C=C2/C(=N)N3C(=NC2=O)SN=C3S(C)(=O)=O)cc1C | 32.7 µM |
| COc1ccc(CCn2c(O)cc3nn(-c4nc5ccccc5s4)c(=O)c-3c2C)cc1 | 36.4 µM |
| CCOC(=O)C1=C(C)N=c2sc(=Cc3ccc(OCC(=O)O)cc3)c(=O)n2C1c1ccc(OC)cc1OC (centres undefined) | 55.8 µM |
| Cc1c2c(=O)n(-c3nc4ccccc4s3)nc-2cc(O)n1Cc1ccncc1 | 5.17 µM |
| Nc1sc2ccccc2[n+]1Cc1ccc(C(=O)O)cc1 | > 100 µM (inactive) |
